The values that follow come from article PMC10257758 (Drug development research, 2023).

SMILES strings stand for the structures. Values joined by “and” are separate entries in the source; they are usually repeats but may differ in a detail not shown here. Equal values may be shown once. Some results are limits rather than exact numbers.

Data set [1] has as its target CA I (Homo sapiens, UniProt P00915). Nature of the data set: CA-catalysed CO2 hydration stopped-flow inhibition assay, CA I. The format is biochemical. To be noted: mean from 3 assays.
The target in data set [2] is CA XII (Homo sapiens, UniProt O43570). As to the kind of experiment: CA-catalysed CO2 hydration stopped-flow inhibition assay, CA XII. To be noted: mean from 3 assays. The format is biochemical.
The target in data set [3] is CA II (Homo sapiens, UniProt P00918). As to the kind of experiment: CA-catalysed CO2 hydration stopped-flow inhibition assay, CA II. The format is biochemical. To be noted: mean from 3 assays.
Data set [4] addresses CA IX (Homo sapiens, UniProt Q16790). Nature of the data set: CA-catalysed CO2 hydration stopped-flow inhibition assay, CA IX. In kind it is biochemical. The settings on record: mean from 3 assays.
Data set [5] in a line: MTS cytotoxicity / cell viability assay. The format is cell-based, human. To be noted: human, HEK293 cells.
Data set [6] relates to HEK293 cells. As to the kind of experiment: MTS cytotoxicity / cell viability assay. The settings on record: low tumorigenic cells (HEK293). The format is cell-based, human.

Sequence of CA I (P00915 whole entry): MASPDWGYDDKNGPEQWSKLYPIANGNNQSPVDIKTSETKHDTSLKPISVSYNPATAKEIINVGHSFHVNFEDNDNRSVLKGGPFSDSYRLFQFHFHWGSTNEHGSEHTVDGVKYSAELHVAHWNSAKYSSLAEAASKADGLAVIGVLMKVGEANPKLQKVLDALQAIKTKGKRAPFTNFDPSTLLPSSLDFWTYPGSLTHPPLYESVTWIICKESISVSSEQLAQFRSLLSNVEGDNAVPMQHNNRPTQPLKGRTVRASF
Sequence of CA XII (O43570 25-354): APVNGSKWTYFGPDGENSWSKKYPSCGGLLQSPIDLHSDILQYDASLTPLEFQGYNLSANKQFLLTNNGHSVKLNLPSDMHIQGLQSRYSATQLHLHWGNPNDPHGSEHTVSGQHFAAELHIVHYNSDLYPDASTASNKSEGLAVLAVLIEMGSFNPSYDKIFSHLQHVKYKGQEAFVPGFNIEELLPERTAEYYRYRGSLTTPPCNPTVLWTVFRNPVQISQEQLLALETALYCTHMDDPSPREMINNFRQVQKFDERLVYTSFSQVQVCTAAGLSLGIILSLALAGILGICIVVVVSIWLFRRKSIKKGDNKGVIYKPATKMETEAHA

By Ki is commonly meant a measure of affinity in units of concentration, obtained from inhibition or displacement. The low end stands for higher affinity, the high end for lower affinity. `CCOC(=O)c1cc2ccc(OCC(=O)Nc3ccc(S(N)(=O)=O)cc3)cc2oc1=O` [5a, Ethyl 2-oxo-7-(2-oxo-2-((4-sulfamoylphenyl)amino)ethoxy)-2H-chromene-3-carboxylate]: the Ki in data set [1] (cells/sentences stated in nM) stood at 738 nM; in data set [2] (cells/sentences stated in nM), 20.3 nM.

`CCOC(=O)c1cc2ccc(OCC(=O)Nc3ccc(S(=O)(=O)Nc4ncnc(OC)c4OC)cc3)cc2oc1=O` [5b, Ethyl 7-(2-((4-(N-(5,6-dimethoxypyrimidin-4-yl)sulfamoyl)phenyl)amino)-2-oxoethoxy)-2-oxo-2H-chromene-3-carboxylate]: the Ki in data set [1] (μM unless stated) is above 100000 nM; in data set [3] (μM unless stated), above 100 µM; in data set [4] (μM unless stated), above 100 µM; in data set [2] (μM unless stated), above 100000 nM.

Take `CCOC(=O)c1cc2ccc(OCC(=O)Nc3ccc(S(=O)(=O)NC(C)=O)cc3)cc2oc1=O` [5c, Ethyl 7-(2-((4-(N-acetylsulfamoyl)phenyl)amino)-2-oxoethoxy)-2-oxo-2H-chromene-3-carboxylate]: the Ki is above 100000 nM in data set [1] (μM unless stated), above 100 µM in data set [3] (μM unless stated), 6.1 µM in data set [4] (μM unless stated) and 1900 nM in data set [2] (μM unless stated).

Turning to `NS(=O)(=O)c1ccc(NC(=O)c2cc3cc(Cl)ccc3oc2=O)cc1` [9b, 6-Chloro-2-oxo-N-(4-sulfamoylphenyl)-2H-chromene-3-carboxamide], the Ki was 818 nM in data set [1] (cells/sentences stated in nM); 0.064 µM and 0.0635 µM in data set [3] (cells/sentences stated in nM); 0.0523 µM in data set [4] (cells/sentences stated in nM); 28.4 nM in data set [2] (cells/sentences stated in nM).

As for `NS(=O)(=O)c1ccc(NC(=O)c2cc3cc(Br)ccc3oc2=O)cc1` [9c, 6-Bromo-2-oxo-N-(4-sulfamoylphenyl)-2H-chromene-3-carboxamide], the Ki in data set [1] (cells/sentences stated in nM) turned out to be 1420 nM; in data set [3] (cells/sentences stated in nM), 0.0854 µM; in data set [4] (cells/sentences stated in nM), 0.0676 µM; in data set [2] (cells/sentences stated in nM) it was 16.2 nM.

With `NS(=O)(=O)c1ccc(NC(=O)c2cc3cc(Cl)cc(Cl)c3oc2=O)cc1` [9d, 6,8-Dichloro-2-oxo-N-(4-sulfamoylphenyl)-2H-chromene-3-carboxamide], the Ki stood at 2320 nM in data set [1] (cells/sentences stated in nM), 0.238 µM in data set [3] (cells/sentences stated in nM), 0.105 µM in data set [4] (cells/sentences stated in nM) and 46.3 nM in data set [2] (cells/sentences stated in nM).

Consider `COc1ccc2cc(C(=O)Nc3ccc(S(N)(=O)=O)cc3)c(=O)oc2c1` [9h, 7-Methoxy-2-oxo-N-(4-sulfamoylphenyl)-2H-chromene-3-carboxamide], for which, in data set [4] (cells/sentences stated in nM), the Ki is 0.0318 µM.

`COc1ccc(NS(=O)(=O)c2ccc(NC(=O)c3cc4cc(Cl)ccc4oc3=O)cc2)nn1` [11b, 6-Chloro-N-(4-(N-(6-methoxypyridazin-3-yl)sulfamoyl)phenyl)-2-oxo-2H-chromene-3-carboxamide]: the Ki was above 100000 nM in data set [1] (μM unless stated), above 100 µM in data set [3] (μM unless stated), above 100 µM in data set [4] (μM unless stated) and above 100000 nM in data set [2] (μM unless stated).

For the molecule `COc1ccc(NS(=O)(=O)c2ccc(NC(=O)c3cc4cc(Cl)cc(Cl)c4oc3=O)cc2)nn1` [11d, 6,8-Dichloro-N-(4-(N-(6-methoxypyridazin-3-yl)sulfamoyl)phenyl)-2-oxo-2H-chromene-3-carboxamide], the Ki was above 100000 nM in data set [1] (μM unless stated), above 100 µM in data set [3] (μM unless stated), above 100 µM in data set [4] (μM unless stated) and above 100000 nM in data set [2] (μM unless stated).

In the case of `Cc1nnc(NS(=O)(=O)c2ccc(NC(=O)c3cc4cc(Br)ccc4oc3=O)cc2)s1` [13c, 6-Bromo-N-(4-(N-(5-methyl-1,3,4-thiadiazol-2-yl)sulfamoyl)phenyl)-2-oxo-2H-chromene-3-carboxamide], the Ki was above 100000 nM in data set [1] (μM unless stated), above 100 µM in data set [3] (μM unless stated), above 100 µM in data set [4] (μM unless stated) and above 100000 nM in data set [2] (μM unless stated).

Consider `COc1cc(NS(=O)(=O)c2ccc(NC(=O)c3cc4cc(Br)ccc4oc3=O)cc2)nc(OC)n1` [14c, 6-Bromo-N-(4-(N-(2,6-dimethoxypyrimidin-4-yl)sulfamoyl)phenyl) −2-oxo-2H-chromene −3-carboxamide], for which the Ki in data set [1] (μM unless stated) is above 100000 nM; in data set [3] (μM unless stated), above 100 µM; in data set [4] (μM unless stated), above 100 µM; in data set [2] (μM unless stated) it was above 100000 nM.

Consider `COc1cc(NS(=O)(=O)c2ccc(NC(=O)c3cc4ccccc4oc3=O)cc2)nc(OC)n1` [14e, N-(4-(N-(2,6-dimethoxypyrimidin-4-yl)sulfamoyl)phenyl)-2-oxo-2H-chromene-3-carboxamide], for which the Ki was above 100000 nM in data set [1] (μM unless stated), above 100 µM in data set [3] (μM unless stated), above 100 µM in data set [4] (μM unless stated) and above 100000 nM in data set [2] (μM unless stated).

`CC(=O)NS(=O)(=O)c1ccc(NC(=O)c2cc3cc(Br)ccc3oc2=O)cc1` [15c, N-(4-(N-acetylsulfamoyl)phenyl)-6-bromo-2-oxo-2H-chromene-3-carboxamide]: the Ki in data set [1] (μM unless stated) was above 100000 nM; in data set [3] (μM unless stated), 46.8 µM; in data set [4] (μM unless stated), 0.91 µM; in data set [2] (μM unless stated), 10600 nM.

Consider `CC(=O)NS(=O)(=O)c1ccc(NC(=O)c2cc3ccccc3oc2=O)cc1` [15e, N-(4-(N-acetylsulfamoyl)phenyl)-2-oxo-2H-chromene-3-carboxamide], for which the results for the Ki in data set [1] (μM unless stated), in data set [3] (μM unless stated) and in data set [2] (μM unless stated) were above 100000 nM, 10.3 µM and 6300 nM, respectively.

`NS(=O)(=O)c1cccc(NC(=O)c2cc3cc(Br)ccc3oc2=O)c1` [16c, 6-Bromo-2-oxo-N-(3-sulfamoylphenyl)-2H-chromene-3-carboxamide]: the Ki in data set [1] (cells/sentences stated in nM) turned out to be 1960 nM; in data set [3] (cells/sentences stated in nM), 0.0763 µM; in data set [4] (cells/sentences stated in nM), 0.0144 µM; in data set [2] (cells/sentences stated in nM) it was 54.2 nM.

Consider `NS(=O)(=O)c1cccc(NC(=O)c2cc3ccccc3oc2=O)c1` [16e, 2-Oxo-N-(3-sulfamoylphenyl)-2H-chromene-3-carboxamide], for which the Ki in data set [1] (cells/sentences stated in nM) was found to be 193 nM; in data set [3] (cells/sentences stated in nM), 0.0535 µM; in data set [4] (cells/sentences stated in nM) it was 0.0189 µM; in data set [2] (cells/sentences stated in nM) it was 69.8 nM.

Take `COc1ccc2oc(=O)c(C(=O)Nc3cccc(S(N)(=O)=O)c3)cc2c1` [16f, 6-Methoxy-2-oxo-N-(3-sulfamoylphenyl)-2H-chromene-3-carboxamide]: the Ki in data set [1] (cells/sentences stated in nM) was 774 nM; in data set [3] (cells/sentences stated in nM), 0.212 µM; in data set [4] (cells/sentences stated in nM) it was 0.005 µM; in data set [2] (cells/sentences stated in nM), 52 nM and 52.1 nM.

For `NS(=O)(=O)c1cccc(NC(=O)c2cc3cc(F)ccc3oc2=O)c1` [16i, 6-Fluoro-2-oxo-N-(3-sulfamoylphenyl)-2H-chromene-3-carboxamide], the Ki in data set [1] (cells/sentences stated in nM) worked out at 225 nM; in data set [3] (cells/sentences stated in nM), 0.0752 µM; in data set [4] (cells/sentences stated in nM), 0.0152 µM; in data set [2] (cells/sentences stated in nM), 49.5 nM.

As a reminder, the viability is the share of living cells, or the viability signal relative to a control. The low end stands for more harm to the cells, the high end for less harm to the cells. Regarding `COc1ccc2oc(=O)c(C(=O)Nc3cc(C(F)(F)F)c(S(N)(=O)=O)cc3S(N)(=O)=O)cc2c1` [18f, N-(2,4-disulfamoyl-5-(trifluoromethyl)phenyl)-6-methoxy-2-oxo-2H-chromene-3-carboxamide], in data set [5], the viability at 72 h, 100 µM turned out to be 97%. Also, in data set [6], the general cytotoxic effect entry is “no general cytotoxic effect”.

Regarding `CCN(CC)c1ccc2cc(C(=O)OCC(=O)Nc3ccc(S(N)(=O)=O)cc3)c(=O)oc2c1` [compound 22, 2-Oxo-2-((4-sulfamoylphenyl)amino)ethyl-7-(diethylamino)-2-oxo-2H-chromene-3-carboxylate], the Ki in data set [1] (cells/sentences stated in nM) was determined as 74.4 nM; in data set [3] (cells/sentences stated in nM), 0.023 µM; in data set [4] (cells/sentences stated in nM), 0.0196 µM; in data set [2] (cells/sentences stated in nM), 65.7 nM.
